In US9149038B2, “4-amino-6-(heterocyclic)picolinates and 6-amino-2-(heterocyclic)pyrimidine-4-carboxylates and their use as herbicides” (Dow AgroSciences LLC, priority 2013, dated 2015):
Where two headings read alike, the source gives them in different places.

Columns and labels:
[1] = test system: Key Broadleaf Weed and Crop Species; experiment: Post-Emergent Test II: postemergent herbicidal activity, visual rating after 14 d (Table 7); type: in vivo; details: post-emergence, 336 h; for pest or weed control at 35 g/ha: 35 g ai/ha; for pest or weed control at 70 g/ha: 70 g ai/ha; for pest or weed control at 140 g/ha: 140 g ai/ha
In short: (§1)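 Plants were raised in a greenhouse for 7-21 d and treated once at the first or second true leaf stage. Compounds, dissolved in 97:3 acetone:DMSO then diluted into an aqueous acetone/isopropanol/crop oil/Triton X-155 carrier, were applied by overhead track sprayer at 187 L/ha. After 14 d with subirrigation, injury was scored visually from 0 (none) to 100 (complete kill).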

[2] = test system: Key Grass and Sedge Weeds as well as Grass Crops; experiment: Post-Emergent Test II: postemergent herbicidal activity, visual rating after 14 d (Table 8); type: in vivo; details: post-emergence, 336 h; for pest or weed control at 35 g/ha: 35 g ai/ha; for pest or weed control at 70 g/ha: 70 g ai/ha; for pest or weed control at 140 g/ha: 140 g ai/ha
In short: as §1

[3] = ABUTH: velvetleaf (Abutilon theophrasti), read-out: Visual Growth Reduction (%) 14 Days After Application ABUTH
[4] = AMARE: redroot pigweed (Amaranthus retroflexus), read-out: Visual Growth Reduction (%) 14 Days After Application AMARE
[5] = BRSNN: oilseed rape, canola (Brassica napus), read-out: Visual Growth Reduction (%) 14 Days After Application BRSNN
[6] = CHEAL: lambsquarters (Chenopodium album), read-out: Visual Growth Reduction (%) 14 Days After Application CHEAL
[7] = EPHHL: wild poinsettia (Euphorbia heterophylla), read-out: Visual Growth Reduction (%) 14 Days After Application EPHHL
[8] = HELAN: sunflower (Helianthus annuus), read-out: Visual Growth Reduction (%) 14 Days After Application HELAN
[9] = barnyardgrass (Echinochloa crus-galli), read-out: Visual Growth Reduction (%) 14 Days After Application, ECHCG
[10] = giant foxtail (Setaria faberi), read-out: Visual Growth Reduction (%) 14 Days After Application, SETFA
[11] = maize, corn (Zea mays), read-out: Visual Growth Reduction (%) 14 Days After Application, ZEAMX
[12] = rice (Oryza sativa), read-out: Visual Growth Reduction (%) 14 Days After Application, ORYSA
[13] = wheat, spring (Triticum aestivum), read-out: Visual Growth Reduction (%) 14 Days After Application, TRZAS
[14] = yellow nutsedge (Cyperus esculentus), read-out: Visual Growth Reduction (%) 14 Days After Application, CYPES

Compound `COC(=O)c1nc(-c2ccc(Cl)c3c2OC(F)(F)O3)cc(N)c1Cl` [Compound 86] has a pest or weed control at 35 g/ha [1, 3] of 75 to 84%, a pest or weed control at 70 g/ha [1, 3] of 85 to 94% and a pest or weed control at 140 g/ha [1, 3] of 85 to 94%. It also gave a pest or weed control at 35 g/ha [1, 4] of 95 to 100%, a pest or weed control at 70 g/ha [1, 4] of 95 to 100% and a pest or weed control at 140 g/ha [1, 4] of 95 to 100%. It also gave a pest or weed control at 35 g/ha [1, 5] of 75 to 84%, a pest or weed control at 70 g/ha [1, 5] of 75 to 84% and a pest or weed control at 140 g/ha [1, 5] of 85 to 94%. It also gave a pest or weed control at 35 g/ha [1, 6] of 95 to 100%, a pest or weed control at 70 g/ha [1, 6] of 95 to 100% and a pest or weed control at 140 g/ha [1, 6] of 95 to 100%. It also gave a pest or weed control at 35 g/ha [1, 7] of 0 to 29%, a pest or weed control at 70 g/ha [1, 7] of 0 to 29% and a pest or weed control at 140 g/ha [1, 7] of 0 to 29%. It also gave a pest or weed control at 35 g/ha [1, 8] of 75 to 84%, a pest or weed control at 70 g/ha [1, 8] of 85 to 94% and a pest or weed control at 140 g/ha [1, 8] of 85 to 94%. The pest or weed control at 35 g/ha [2, 9] was 0 to 29%, the pest or weed control at 70 g/ha [2, 9] was 0 to 29% and the pest or weed control at 140 g/ha [2, 9] was 0 to 29%. It also gave a pest or weed control at 35 g/ha [2, 10] of 0 to 29%, a pest or weed control at 70 g/ha [2, 10] of 0 to 29% and a pest or weed control at 140 g/ha [2, 10] of 0 to 29%. It also gave a pest or weed control at 35 g/ha [2, 11] of 85 to 94%, a pest or weed control at 70 g/ha [2, 11] of 85 to 94% and a pest or weed control at 140 g/ha [2, 11] of 95 to 100%. The pest or weed control at 35 g/ha [2, 12] was 0 to 29%, the pest or weed control at 70 g/ha [2, 12] was 0 to 29% and the pest or weed control at 140 g/ha [2, 12] was 0 to 29%. For the same compound, the pest or weed control at 35 g/ha [2, 13] was 0 to 29%, the pest or weed control at 70 g/ha [2, 13] was 0 to 29% and the pest or weed control at 140 g/ha [2, 13] was 0 to 29%. For the same compound, the pest or weed control at 35 g/ha [2, 14] was 60 to 74%, the pest or weed control at 70 g/ha [2, 14] was 60 to 74% and the pest or weed control at 140 g/ha [2, 14] was 60 to 74%.

`COC(=O)c1nc(-c2ccc(Cl)c3c2OC(F)(F)O3)c(C)c(N)c1Cl` [Compound 94] was tested, and the pest or weed control at 35 g/ha [1, 3] was 30 to 44%, the pest or weed control at 70 g/ha [1, 3] was 45 to 59% and the pest or weed control at 140 g/ha [1, 3] was 45 to 59%. The pest or weed control at 35 g/ha [1, 4] was 95 to 100%, the pest or weed control at 70 g/ha [1, 4] was 95 to 100% and the pest or weed control at 140 g/ha [1, 4] was 95 to 100%. The pest or weed control at 35 g/ha [1, 5] was 0 to 29%, the pest or weed control at 70 g/ha [1, 5] was 0 to 29% and the pest or weed control at 140 g/ha [1, 5] was 0 to 29%. The pest or weed control at 35 g/ha [1, 6] was 75 to 84%, the pest or weed control at 70 g/ha [1, 6] was 85 to 94% and the pest or weed control at 140 g/ha [1, 6] was 85 to 94%. For the same compound, the pest or weed control at 35 g/ha [1, 7] was 0 to 29%, the pest or weed control at 70 g/ha [1, 7] was 0 to 29% and the pest or weed control at 140 g/ha [1, 7] was 0 to 29%. For the same compound, the pest or weed control at 35 g/ha [1, 8] was 60 to 74%, the pest or weed control at 70 g/ha [1, 8] was 85 to 94% and the pest or weed control at 140 g/ha [1, 8] was 95 to 100%. The pest or weed control at 35 g/ha [2, 9] was 0 to 29%, the pest or weed control at 70 g/ha [2, 9] was 0 to 29% and the pest or weed control at 140 g/ha [2, 9] was 0 to 29%. For the same compound, the pest or weed control at 35 g/ha [2, 10] was 0 to 29%, the pest or weed control at 70 g/ha [2, 10] was 0 to 29% and the pest or weed control at 140 g/ha [2, 10] was 0 to 29%. For the same compound, the pest or weed control at 35 g/ha [2, 12] was 0 to 29%, the pest or weed control at 70 g/ha [2, 12] was 0 to 29% and the pest or weed control at 140 g/ha [2, 12] was 0 to 29%. The pest or weed control at 35 g/ha [2, 13] was 0 to 29%, the pest or weed control at 70 g/ha [2, 13] was 0 to 29% and the pest or weed control at 140 g/ha [2, 13] was 0 to 29%. The pest or weed control at 35 g/ha [2, 14] was 0 to 29%, the pest or weed control at 70 g/ha [2, 14] was 0 to 29% and the pest or weed control at 140 g/ha [2, 14] was 0 to 29%.

For `COC(=O)c1nc(-c2cccc3c2OCO3)cc(N)c1Cl` [Compound 93], the pest or weed control at 35 g/ha [1, 3] was 0 to 29%, the pest or weed control at 70 g/ha [1, 3] was 0 to 29% and the pest or weed control at 140 g/ha [1, 3] was 45 to 59%. It also gave a pest or weed control at 35 g/ha [1, 4] of 0 to 29%, a pest or weed control at 70 g/ha [1, 4] of 0 to 29% and a pest or weed control at 140 g/ha [1, 4] of 60 to 74%. It also gave a pest or weed control at 35 g/ha [1, 5] of 0 to 29%, a pest or weed control at 70 g/ha [1, 5] of 30 to 44% and a pest or weed control at 140 g/ha [1, 5] of 60 to 74%. For the same compound, the pest or weed control at 35 g/ha [1, 6] was 60 to 74%, the pest or weed control at 70 g/ha [1, 6] was 75 to 84% and the pest or weed control at 140 g/ha [1, 6] was 95 to 100%. For the same compound, the pest or weed control at 35 g/ha [1, 7] was 0 to 29%, the pest or weed control at 70 g/ha [1, 7] was 0 to 29% and the pest or weed control at 140 g/ha [1, 7] was 0 to 29%. It also gave a pest or weed control at 35 g/ha [1, 8] of 45 to 59%, a pest or weed control at 70 g/ha [1, 8] of 60 to 74% and a pest or weed control at 140 g/ha [1, 8] of 75 to 84%. For the same compound, the pest or weed control at 35 g/ha [2, 9] was 0 to 29%, the pest or weed control at 70 g/ha [2, 9] was 0 to 29% and the pest or weed control at 140 g/ha [2, 9] was 0 to 29%. The pest or weed control at 35 g/ha [2, 10] was 0 to 29%, the pest or weed control at 70 g/ha [2, 10] was 0 to 29% and the pest or weed control at 140 g/ha [2, 10] was 0 to 29%. For the same compound, the pest or weed control at 35 g/ha [2, 11] was 0 to 29%, the pest or weed control at 70 g/ha [2, 11] was 0 to 29% and the pest or weed control at 140 g/ha [2, 11] was 0 to 29%. The pest or weed control at 35 g/ha [2, 12] was 0 to 29%, the pest or weed control at 70 g/ha [2, 12] was 0 to 29% and the pest or weed control at 140 g/ha [2, 12] was 0 to 29%. For the same compound, the pest or weed control at 35 g/ha [2, 13] was 0 to 29%, the pest or weed control at 70 g/ha [2, 13] was 0 to 29% and the pest or weed control at 140 g/ha [2, 13] was 0 to 29%. The pest or weed control at 35 g/ha [2, 14] was 0 to 29%, the pest or weed control at 70 g/ha [2, 14] was 0 to 29% and the pest or weed control at 140 g/ha [2, 14] was 0 to 29%.
